# Assays:
# [1] = compound: C1CC(C1)(C(=O)[O-])C(=O)[O-].N.N.[Pt+2] [Carboplatin]; conditions: max 10 µM
# How it was run: (§1)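 Cancer cell lines were plated in 1536-well plates in 7.5 μl of DMEM/F12 or RPMI with 10% FBS and kept 24 hours at 37°C and 5% CO2 before 72 hours of dosing, with final DMSO typically 0.2%. CellTiter-Glo 2.0 luminescence measured viability, scaled between blank-well and DMSO-well means. Dose responses were fitted to a two-parameter logistic curve with a non-linear mixed effects model. This fit gives the single-agent IC50.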
# [2] = compound: C1CN(CCC1(C(=O)N[C@@H](CCO)C2=CC=C(C=C2)Cl)N)C3=NC=NC4=C3C=CN4 [AZD5363]; conditions: max 10 µM
# How it was run: as §1
# [3] = compound: C=CCn1c(=O)c2cnc(Nc3ccc(N4CCN(C)CC4)cc3)nc2n1-c1cccc(C(C)(C)O)n1 [AZD1775]; conditions: max 3 µM
# How it was run: as §1
# [4] = compound: CC(=O)Nc1cccc(-n2c(=O)n(C3CC3)c(=O)c3c(Nc4ccc(I)cc4F)n(C)c(=O)c(C)c32)c1 [Trametinib]; conditions: max 1 µM
# How it was run: as §1
# [5] = compound: CC(=O)O[C@H]1C(=O)[C@@]2(C)[C@H]([C@H](OC(=O)c3ccccc3)[C@]3(O)C[C@H](OC(=O)[C@H](O)[C@@H](NC(=O)c4ccccc4)c4ccccc4)C(C)=C1C3(C)C)[C@]1(OC(C)=O)CO[C@@H]1C[C@@H]2O [Paclitaxel]; conditions: max 3 µM
# How it was run: as §1
# [6] = compound: CC(=O)c1c(C)c2cnc(Nc3ccc(N4CCNCC4)cn3)nc2n(C2CCCC2)c1=O [Palbociclib]; conditions: max 10 µM
# How it was run: as §1
# [7] = compound: CC(C)n1c(=O)n(C)c2cnc3cc(F)c(-c4ccc(OCCCN5CCCCC5)nc4)cc3c21 [AZD1390]; conditions: max 0.3 µM
# How it was run: as §1
# [8] = compound: CC1(C)CCC(CN2CCN(c3ccc(C(=O)NS(=O)(=O)c4ccc(NCC5CCOCC5)c([N+](=O)[O-])c4)c(Oc4cnc5[nH]ccc5c4)c3)CC2)=C(c2ccc(Cl)cc2)C1 [Venetoclax]; conditions: max 1 µM
# How it was run: as §1
# [9] = compound: CC1=C(C(=CC=C1)Cl)NC(=O)C2=CN=C(S2)NC3=CC(=NC(=N3)C)N4CCN(CC4)CCO [Dasatinib]; conditions: max 2 µM
# How it was run: as §1
# [10] = compound: CC1=CN2[C@@H](C1)C=NC3=CC(=C(C=C3C2=O)OC)OCCCCCOC4=C(C=C5C(=C4)N=C[C@@H]6CC(=CN6C5=O)C)OC [SG3199]; conditions: max 0.001 µM
# How it was run: as §1
# [11] = compound: CCN(CCO)CCCOc1ccc2c(Nc3cc(CC(=O)Nc4cccc(F)c4)[nH]n3)ncnc2c1 [AZD2811]; conditions: max 1 µM
# How it was run: as §1
# [12] = compound: CCc1c2c(nc3ccc(O)cc13)-c1cc3c(c(=O)n1C2)COC(=O)[C@]3(O)CC [SN-38]; conditions: max 0.3 µM
# How it was run: as §1
# [13] = compound: CN(C)CCCOc1ccc(-c2ccc3ncc4c(c3c2)n(C2CCOCC2)c(=O)n4C)cn1 [AZD0156]; conditions: max 3 µM
# How it was run: as §1
# [14] = compound: CN(CC[C@H](CSC1=CC=CC=C1)NC2=C(C=C(C=C2)S(=O)(=O)NC(=O)C3=CC=C(C=C3)N4CCC(CC4)[C@H](C5=CC=CC=C5C6=CC=C(C=C6)Cl)O)S(=O)(=O)C(F)(F)F)CCO [AZD4320]; conditions: max 1 µM
# How it was run: as §1
# [15] = compound: COc1cc(Nc2ncc3c(n2)-c2ccc(Cl)cc2C(c2c(F)cccc2OC)=NC3)ccc1C(=O)O [Alisertib]; conditions: max 10 µM
# How it was run: as §1
# [16] = compound: COc1cc([C@@H]2c3cc4c(cc3[C@@H](O[C@@H]3O[C@@H]5CO[C@@H](C)O[C@H]5[C@H](O)[C@H]3O)[C@H]3COC(=O)[C@H]23)OCO4)cc(OC)c1O [Etoposide]; conditions: max 10 µM
# How it was run: as §1
# [17] = compound: COc1cc2ncnc(Nc3ccc(F)c(Cl)c3)c2cc1OCCCN1CCOCC1 [Gefitinib]; conditions: max 10 µM
# How it was run: as §1
# [18] = compound: COc1cccc(OCCCN)c1-c1cc(Nc2cnc(C#N)cn2)n[nH]1 [Prexasertib]; conditions: max 1 µM
# How it was run: as §1
# [19] = compound: COc1cccc2c1C(=O)c1c(O)c3c(c(O)c1C2=O)C[C@@](O)(C(=O)CO)C[C@@H]3O[C@H]1C[C@H](N)[C@H](O)[C@H](C)O1 [Doxorubicin]; conditions: max 1 µM
# How it was run: as §1
# [20] = compound: COc1nnc2ccc(N3CCC(c4ccc(OCCN5CCN(C)C(=O)[C@H]5C)cc4)CC3)nn12 [AZD5153]; conditions: max 1 µM
# How it was run: as §1
# [21] = compound: CS(=O)(=O)CCNCc1ccc(-c2ccc3ncnc(Nc4ccc(OCc5cccc(F)c5)c(Cl)c4)c3c2)o1 [Lapatinib]; conditions: max 10 µM
# How it was run: as §1
# [22] = compound: C[C@@H](Nc1cc(F)cc(F)c1)c1cc(C(=O)N(C)C)cc2c(=O)cc(N3CCOCC3)oc12 [AZD8186]; conditions: max 10 µM
# How it was run: as §1
# [23] = compound: C[C@@H](Oc1cc(-c2cnn(C3CCNCC3)c2)cnc1N)c1c(Cl)ccc(F)c1Cl [Crizotinib]; conditions: max 10 µM
# How it was run: as §1
# [24] = compound: C[C@@H](c1ccc2nccn2c1)n1nnc2ncc(-c3cnn(C)c3)nc21 [Savolitinib]; conditions: max 1 µM
# How it was run: as §1
# [25] = compound: C[C@@H]1COCCN1C2=NC(=NC(=C2)C3(CC3)[S@](=N)(=O)C)C4=C5C=CNC5=NC=C4 [AZD6738]; conditions: max 10 µM
# How it was run: as §1
# [26] = compound: Cc1c2c(nn1C)CSCc1cc(n(C)n1)CSc1cc(c3ccccc3c1)OCCCc1c(C(=O)O)n(C)c3c-2c(Cl)ccc13 [AZD5991]; conditions: max 1 µM
# How it was run: as §1
# [27] = compound: Cc1cc2ncnn2cc1Nc1ncc2c(n1)n(C1CCOCC1)c(=O)n2C [AZD7648]; conditions: max 10 µM
# How it was run: as §1
# [28] = compound: Cc1nc(-c2cn3c(n2)-c2ccc(-c4cnn(C(C)(C)C(N)=O)c4)cc2OCC3)n(C(C)C)n1 [Taselisib]; conditions: max 10 µM
# How it was run: as §1
# [29] = compound: Cn1cnc2c(F)c(Nc3ccc(Br)cc3Cl)c(C(=O)NOCCO)cc21 [Selumetinib]; conditions: max 10 µM
# How it was run: as §1
# [30] = compound: N#Cc1cnc(Nc2cc(NC[C@H]3CNCCO3)c(C(F)(F)F)cn2)cn1 [SRA737]; conditions: max 10 µM
# How it was run: as §1
# [31] = compound: NC1(c2ccc(-c3nc4ccn5c(=O)[nH]nc5c4cc3-c3ccccc3)cc2)CCC1 [MK-2206]; conditions: max 10 µM
# How it was run: as §1
# [32] = compound: Nc1ccn([C@@H]2O[C@H](CO)[C@@H](O)C2(F)F)c(=O)n1 [Gemcitabine]; conditions: max 0.3 µM
# How it was run: as §1
# [33] = compound: O=C(Nc1ccc2[nH]nc(-c3ccncc3)c2c1)[C@@H]1CCN(CC(=O)N2CCN(c3ccc(-c4ncccn4)cc3)CC2)C1; conditions: max 5 µM
# How it was run: as §1
# [34] = compound: O=C(c1cc(Cc2n[nH]c(=O)c3ccccc23)ccc1F)N1CCN(C(=O)C2CC2)CC1 [Olaparib]; conditions: max 10 µM
# How it was run: as §1
# [35] = compound: O=c1[nH]cc(F)c(=O)[nH]1 [5-Fluorouracil]; conditions: max 20 µM
# How it was run: as §1
Cell Line,"IC50, cell viability 72 h [1]","IC50, cell viability 72 h [2]","IC50, cell viability 72 h [3]","IC50, cell viability 72 h [4]","IC50, cell viability 72 h [5]","IC50, cell viability 72 h [6]","IC50, cell viability 72 h [7]","IC50, cell viability 72 h [8]","IC50, cell viability 72 h [9]","IC50, cell viability 72 h [10]","IC50, cell viability 72 h [11]","IC50, cell viability 72 h [12]","IC50, cell viability 72 h [13]","IC50, cell viability 72 h [14]","IC50, cell viability 72 h [15]","IC50, cell viability 72 h [16]","IC50, cell viability 72 h [17]","IC50, cell viability 72 h [18]","IC50, cell viability 72 h [19]","IC50, cell viability 72 h [20]","IC50, cell viability 72 h [21]","IC50, cell viability 72 h [22]","IC50, cell viability 72 h [23]","IC50, cell viability 72 h [24]","IC50, cell viability 72 h [25]","IC50, cell viability 72 h [26]","IC50, cell viability 72 h [27]","IC50, cell viability 72 h [28]","IC50, cell viability 72 h [29]","IC50, cell viability 72 h [30]","IC50, cell viability 72 h [31]","IC50, cell viability 72 h [32]","IC50, cell viability 72 h [33]","IC50, cell viability 72 h [34]","IC50, cell viability 72 h [35]"
OV-90 (Ovarian Carcinoma),> 10000 nM,> 10000 nM,> 3000 nM,83.7 nM,> 3000 nM,> 10000 nM,> 300 nM,> 1000 nM,> 2000 nM,> 1 nM,> 1000 nM,265 nM,> 3000 nM,> 1000 nM,> 10000 nM,> 10000 nM,> 10000 nM,523 nM,> 1000 nM,> 1000 nM,> 10000 nM,> 10000 nM,> 10000 nM,> 1000 nM,> 10000 nM,> 1000 nM,> 10000 nM,> 10000 nM,7810 nM,> 10000 nM,> 10000 nM,> 300 nM,1880 nM,> 10000 nM,> 20000 nM
LAMA-84 (Chronic Myelogenous Leukemia),> 10000 nM,> 10000 nM,351 nM,16.3 nM,37 nM,3090 nM,> 300 nM,> 1000 nM,< 2 nM,> 1 nM,> 1000 nM,24.6 nM,> 3000 nM,486 nM,305 nM,8280 nM,> 10000 nM,17.3 nM,> 1000 nM,146 nM,> 10000 nM,> 10000 nM,527 nM,> 1000 nM,2020 nM,> 1000 nM,> 10000 nM,> 10000 nM,1570 nM,2110 nM,5120 nM,24.6 nM,915 nM,> 10000 nM,> 20000 nM
Becker (Low Grade Glioma),> 10000 nM,> 10000 nM,> 3000 nM,> 1000 nM,6.48 nM,> 10000 nM,> 300 nM,> 1000 nM,> 2000 nM,> 1 nM,> 1000 nM,28.5 nM,> 3000 nM,> 1000 nM,> 10000 nM,> 10000 nM,> 10000 nM,94.1 nM,> 1000 nM,> 1000 nM,> 10000 nM,3900 nM,> 10000 nM,> 1000 nM,> 10000 nM,> 1000 nM,> 10000 nM,3430 nM,> 10000 nM,> 10000 nM,> 10000 nM,> 300 nM,> 5000 nM,> 10000 nM,> 20000 nM
CML-T1 (Chronic Myelogenous Leukemia),> 10000 nM,7380 nM,429 nM,262 nM,4.8 nM,222 nM,> 300 nM,585 nM,< 2 nM,> 1 nM,> 1000 nM,0.718 nM,> 3000 nM,54.1 nM,142 nM,92.6 nM,> 10000 nM,6.27 nM,62.8 nM,> 1000 nM,> 10000 nM,> 10000 nM,692 nM,> 1000 nM,1110 nM,> 1000 nM,> 10000 nM,> 10000 nM,4000 nM,588 nM,2050 nM,12.5 nM,> 5000 nM,5750 nM,19500 nM
SK-MM-2 (Plasma Cell Myeloma),> 10000 nM,> 10000 nM,> 3000 nM,> 1000 nM,> 3000 nM,> 10000 nM,> 300 nM,2.5 nM,> 2000 nM,> 1 nM,> 1000 nM,76.4 nM,> 3000 nM,3.02 nM,1810 nM,> 10000 nM,> 10000 nM,119 nM,> 1000 nM,32.5 nM,> 10000 nM,> 10000 nM,> 10000 nM,> 1000 nM,> 10000 nM,> 1000 nM,> 10000 nM,> 10000 nM,> 10000 nM,> 10000 nM,> 10000 nM,> 300 nM,> 5000 nM,> 10000 nM,> 20000 nM
